From patent US9125930B2, “EGFR aptamer inhibitor for use in therapy and diagnosis” (CONSIGLIO NAZIONALE DELLE RICERCHE, priority 2010, dated 2015)
pKd: −log10 of the molar value.

Assays:
glioma U87MG = assay: Binding on U87MG cells; parameters: species or system human; conditions: no or very low expression of EGFR; 100 nM
Procedure: (§1) Binding experiments were performed with 5′-[^32P]-labeled RNA. For labeling 2′-F-Py RNAs were 5′-end dephosphorylated using bacterial alcaline phosphatase (Invitrogen, Carlsbad, Calif.) before [^32P]-5′-end-labeled using T4 kinase (Invitrogen) and γ-[^32P]-ATP (6×10^3 Ci/mmol, GE Healthcare Bio-Sciences, Uppsala, Sweden) according to the supplier's instructions.
(§2) For binding experiments on cells, 3.5×10^4 cells were plated in 24-well plates in triplicate and were incubated with CL4 42-81 aptamer the scrambled sequence used as a negative control at 100 nM concentration in 200 μl of DMEM serum free for 20 min at RT in the presence of 100 μg/ml polyinosine as a nonspecific competitor (Sigma, St. Louis, Mo.). After five washings with 500 μl DMEM, bound sequences were recovered in 300 μl of SDS 1%, and the amount of radioactivity recovered was counted.

breast T47D = assay: Binding on T47D cells; parameters: species or system human; conditions: no or very low expression of EGFR; 100 nM
Procedure: as §1, §2

[1] = target: T1, soluble extracellular domain of human EGFR (EC-EGFR) (Homo sapiens, UniProt P00533); assay: Filter binding on soluble extracellular domain of EGFR
T1 construct: purchased R&D Systems
Procedure: as §1
The aptamers ability to bind EGFR or ErbB3 soluble extracellular domain (EC-EGFR and EC-ErbB3) was investigated by filter binding by plotting the fraction of RNA bound to the nitrocellulose filter as a function of protein concentration, using the following equation:
[formula] where Bmax is the extrapolated maximal amount of RNA:protein complex that will be bound. 1 nM of radiolabelled aptamers (CL4 42-81 aptamer or the scrambled sequence) were incubated with 1, 3.2, 10, 32, 100, 320 and 1000 nM of EC-EGFR and EC-ErbB3 (all from R&D Systems, Minneapolis, Minn.) for 15 min at 37° in phosphate-buffered saline (PBS) supplemented with 0.01% bovine serum albumin.
In order to test the binding for dimeric and monomeric proteins, 1 nM of radiolabelled aptamers (CL4 42-81 or scrambled) were incubated with 20 nM of EC-EGFR and EC-ErbB3 without or with 5 mM DTT.
After incubation, the aptamer-protein mix was passed through nitrocellulose membrane filter (Millipore Co., Bedford, Mass.) and filters were counted. […]

caspase-3 [2] = assay: Caspase-3 activity assay in A549 cells; assay type: cell-based, human; conditions: A549, 200 nM, 6 hs
Procedure: (§3) A549 cells were treated with 200 nM CL4 42-81 or the scrambled aptamer for 6 hs. To determine caspase activity cell lysates (50 μg) were incubated at 37° C. for 1 h with 50 μM of a specific fluorometric substrate (Ac-DEVD-AFC for caspase-3, Ac-IETD-AFC for caspase-8, both from Alexis Bichemicals, San Diego, Calif.). Cleavage of the fluorometric substrate were determined using a Fluorometer, with excitation at 400 nm and emission at 505 nm wavelengths.

caspase-8 = assay: Caspase-8 activity assay in A549 cells; assay type: cell-based, human; conditions: A549, 200 nM, 6 hs
Procedure: as §3

A431 tumors = assay: Tumor growth in A431 mouse xenograft; assay type: in vivo; conditions: 200 pmoles intratumoral
Procedure: Athymic nude mice (nu/nu) were maintained in a sterile environment according to guidelines for Animal Care. Mice were inoculated with either 3×10^6 (in 100 μl) in vitro propagated A431 cells subcutaneously injected into each flank. Approximately 24 non-necrotic tumors for each tumor type, of about 1 cm in diameter, were randomly divided into three groups of eight mice per treatment group as follows: group 1, no treatment; group 2, treated with scrambled RNA as a negative control (200 pmols/injection); group 3, treated with CL4 42-81 (200 pmols/injection). Compounds were injected intra-tumorally in 100-1 μl volumes three times a week for two weeks. Day 0 marks the first day of injection. The aptamers may also be administered systemically, in particular when optimized by addition of polyethylene glycol (PEG).
The volume injections are small enough to preclude the compounds being forced inside the cells due to a nonspecific high-pressure injection. Tumors were measured every 3 days with calipers in three dimensions. The following formula was used to calculate tumor volume: VT=(W×L×H)×0.5236 (W, the shortest dimension; L, the longest dimension; H, the intermediate dimension). The growth curves are plotted as the means tumor volume±s.e.m. Statistical analysis of tumor size data was conducted using a one-way ANOVA. A P-value of 0.05 or less was considered to indicate a significant difference. […]

caspase-3 [3] = assay: Caspase-3 in A549 xenograft tumor lysates; assay type: in vivo, mouse; conditions: pooled tumor lysates
Procedure: FIG. 8. (A) A549 cells (2,000 cells/well in 24-well plates) were treated for 24 h or 48 h with CL4 42-81 or CL4 scrambled (200 nM-final concentration) and proliferation was determined by [^3H]-thymidine incorporation. Vertical bars indicate the standard deviation values. […] Day 0 marks the first day of injection. Data are shown as means±s.e.m. (n=8 tumors). (C) Three tumors per group selected randomly were excised, lysed, and the pooled lysates were immunoblotted with anti-pEGFR, anti-EGFR, anti-caspase-3, anti-cleaved caspase-8 and anti-αtubulin antibodies, as indicated. Molecular weights of indicated proteins are reported. (D) Cell lysates as in (C) were analyzed by caspase-3 fluorimetric assays.
Athymic CD-1 nude mice (nu/nu) were housed in a highly controlled microbiological environment, thus to guarantee specific pathogen free conditions. Mice were injected subcutaneously with 3×10^6 (in 100 μl) in vitro propagated A549. Sixteen non-necrotic tumors of about 0.5 cm in diameter were randomly divided into two groups of eight mice as follows: group 1, CL4 scrambled-treated; group 2, CL4 42-81-treated. Aptamers (200 pmols/injection) were injected intra-tumorally in 100-1 μl volumes three times a week for 16 days. Tumors were measured every 2 days.

In the case of “CL4 42-81: 2′-fluoropyrimidine nuclease-resistant RNA aptamer of 39 nt: 5′ GCCUUAGUAACGUGCUUUGAUGUCGAUUCGACAGGAGGC 3′ (SEQ ID No. 1) (2'-fluoro at CU, RNA at AG, backbone not given here)”, the “binding on U87MG cells” value (glioma U87MG) was “does not bind”, the “binding on T47D cells” value (breast T47D) was “does not bind” and the pKd [1] was 8.00. For the same substance, the “activation of caspase-3” value (caspase-3 [2]) was “strongly induce activation”, the “activation of caspase-8” value (caspase-8) was “strongly induce activation” and the “tumor growth from day 9 to day 15” value (A431 tumors; three times a week) was “stopped to grow and was reduced in volume”. For the same substance, the tumor volume (A431 tumors; three times a week for two weeks) was “pronounced reduction in tumor volume” and the “caspase-3 activation in xenograft tumors” value (caspase-3 [3]) was “activates”.
